{"source": "patent US20060009656A1", "about": "“METHOD OF PRODUCING BETAINE COMPOUND” (priority 2004, published 2006)", "origin": "cited, not measured here", "conditions": "as methyl supplier in feed", "note": "Structures can show the parent of a compound that is named as a salt.", "data": [{"smiles": "C[N+](C)(C)CC(=O)O", "note": "[Betaine anhydrous, 2-(Trimethylammonio) ethanoic acid, hydroxide, inner salt]", "values": [{"measurement": "effective value of organism relative to 50% choline chloride", "setting": "relative to 50% choline chloride", "value": 1.8, "unit": "times"}, {"measurement": "effective value of organism relative to DL-methionine", "setting": "relative to DL-methionine", "value": 3, "unit": "times"}]}]}
